Data taken from PubChem BioAssay (NCI).
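Following 48 hours of exposure in 96-well plates, responses at five concentrations were used to interpolate endpoints linearly. GI50 is the concentration that inhibits growth by half. TGI marks complete inhibition of growth.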

The molecules below were run on OVCAR-5 ovarian (assay: inhibition of tumour cell growth, NCI panel, 48 h).
For `COC(=O)/C(=N\NC(=S)NN)C(C(=O)C(=O)Nc1ccccc1C(N)=O)c1nc2ccccc2[nH]c1=O` (stereo not drawn), the TGI was > 100 µM. For `CC/C=C\C/C=C\C1CC(=O)NCCCNCCCCN1` (stereo not drawn), the TGI was > 100 µM. `CC1CCCC(C(=O)/C(=C/c2cccc(Cl)c2)C(=O)C(=O)O)C1` (stereo not drawn) was tested, and the TGI was > 100 µM. In the case of `CC(=O)c1c(C)n([O-])c2cc(C)c(C)cc2[n+]1=O`, the TGI is reported as > 100 µM. For `N#CC(C#N)=Cc1cccc(Oc2ccccc2)c1`, the TGI was > 100 µM. With `Cc1ncc([N+](=O)[O-])n1CCNC(=O)CCCCn1ccnc1[N+](=O)[O-]` the TGI was > 100 µM. Molecule `COc1ccc(/C=C/C(=O)c2sc(-n3nc(-c4ccccc4)cc3-c3ccccc3)nc2C)cc1OC` has a TGI of 92.6 µM. In the case of `COC(=O)c1c(O)ccc2[nH]c(C)c(C#N)c12`, the GI50 is reported as > 100 µM and the TGI is reported as > 100 µM. In the case of `NC(CCSCC(F)F)C(=O)O` (stereo not drawn), the TGI is reported as > 100 µM. With `COC(=O)NC/C=C\c1nc(CC/C=C\C(=O)OC2CC3CC(=O)O[C@@H](/C=C/CC(C)C)C[C@@H]4CCC(C)C(C[C@@H](OC)CC(C2)O3)O4)co1` (stereo partly drawn) the GI50 was < 0.01 µM and the TGI was > 100 µM. With `CC1(C)OC(=O)C=C([O-])O1.CC1(C)OC(=O)C=C([O-])O1.O=c1c(O)c(-c2ccc([O-])cc2[O-])oc2cc(O)cc(O)c12.[Ti+4]` the TGI was > 100 µM.

What follows are molecules tested on SF-268 CNS (assay: inhibition of tumour cell growth, NCI panel, 48 h).
For `CN(C)C(=S)/N=c1\ss/c(=N\S(=O)(=O)c2ccccc2)n1-c1ccccc1`, the TGI was > 100 µM. For `N#Cc1c(N)c(C(=O)O)nn(-c2cccc(C(F)(F)F)c2)c1=O`, the TGI was > 100 µM. Molecule `Cc1ccc(C(=O)CC(Sc2cccc(Cl)c2Cl)c2ccc(Cl)cc2)cc1C` (stereo not drawn) has a GI50 of 21.3 µM and a TGI of 48.2 µM. With `Oc1c(Br)cc(CN(Cc2cc(Br)c(O)c(Br)c2)C2CCCCC2)cc1Br` the TGI was > 100 µM. For `COc1cc(/C=C\c2ccc(O)cc2)cc(OC)c1OC`, the TGI was 4.63 µM. For `C=C(COC(C)=O)CC(/C=C(\C)CCC=C(C)C)OC(C)=O` (stereo not drawn), the TGI was > 100 µM. In the case of `Cc1sc(C)c(-c2ccc(CO)o2)c1-c1ccc(CO)o1`, the GI50 is reported as 91.1 µM and the TGI is reported as > 100 µM. `CC1(C)CCc2cc3c(cc2O1)OCCC3=O` was tested, and the TGI was > 100 µM. In the case of `Oc1c2c(c(O)c3ccccc13)=N[C@@H](c1ccccc1)[C@H](c1ccccc1)N=2`, the TGI is reported as > 100 µM. For `c1cc[c]([Sn]([S]c2cccc3cccnc23)([c]2ccccc2)[c]2ccccc2)cc1`, the GI50 was 0.0469 µM and the TGI was 0.241 µM. `O=C1CCn2c([nH]c3cccc4cccc2c43)=N1` was tested, and the TGI was > 100 µM. `O=C(Nc1cc(-c2ccccc2)[nH]n1)c1ccc(Cl)cc1` was tested, and the GI50 was 28.6 µM and the TGI was > 100 µM. `C=C1CC(COc2cc(Cl)nc(N)n2)C1` was tested, and the GI50 was 70.4 µM. In the case of `Cc1cc(C)nc(NS(=O)(=O)c2ccc(Nc3c4ccccc4nc4c(C(=O)N5CCN(CCOS(C)(=O)=O)CC5)ccc(Cl)c34)cc2)n1`, the TGI is reported as > 100 µM. `Clc1cc(Cl)c2c(Cl)cc(Cl)c3c2c1N=S=N3` was tested, and the TGI was > 100 µM. With `CN1CCN(C)C1c1cccc(C2N(C)CCN2C)c1` the TGI was > 100 µM. `CC(=O)OCCOCBr` was tested, and the TGI was > 100 µM. In the case of `O=C1c2ccccc2-c2c1c1ccccc1c(=O)n2CCNCCCNCCn1c2c(c3ccccc3c1=O)C(=O)c1ccccc1-2`, the GI50 is reported as 0.156 µM and the TGI is reported as 6.81 µM. For `CC(O)CN1C(=O)NC(Cc2ccccc2)C1=O` (stereo not drawn), the TGI was > 100 µM. `O=C(c1ccccc1)[C@H]1Nc2cnccc2C2c3ccccc3CC21` (stereo partly drawn) showed a TGI of 59.9 µM. `Cn1c(N)nc2c(nc(OCc3ccccc3)n2C2OC(CO)C(O)C2O)c1=O` (stereo not drawn) was tested, and the TGI was > 100 µM. With `CN(C)c1nc(-c2cccs2)n2nc(-c3ccc(Cl)cc3)cc2n1` the GI50 was 21.3 µM and the TGI was > 100 µM. `COc1cc(/C=C2\CC3C4CC=C5CC(N6CCCC6)CC[C@]5(C)C4CC[C@]3(C)C2OC(C)=O)ccc1OCCN1CCCC1` (stereo partly drawn) showed a GI50 of 2.53 µM and a TGI of 6.04 µM. With `COc1ccc(C(=O)C(C(=O)CCC(=O)Nc2cccc(C(F)(F)F)c2)c2ccccc2)cc1` (stereo not drawn) the TGI was > 100 µM. In the case of `NC1=NC(=O)C(CC(=O)Nc2ccc([N+](=O)[O-])cc2[N+](=O)[O-])S1` (stereo not drawn), the TGI is reported as > 100 µM. With `O=C1c2ccccc2-c2cccc3ccc(Cc4ccccc4)c1c23` the TGI was > 100 µM. For `COC(=O)/C(=N\NC(=S)NN)C(C(=O)C(=O)Nc1ccccc1C(N)=O)c1nc2ccccc2[nH]c1=O` (stereo not drawn), the TGI was > 100 µM. In the case of `CC/C=C\C/C=C\C1CC(=O)NCCCNCCCCN1` (stereo not drawn), the TGI is reported as > 100 µM. `CC1CCCC(C(=O)/C(=C/c2cccc(Cl)c2)C(=O)C(=O)O)C1` (stereo not drawn) was tested, and the TGI was 92.3 µM. For `CC(=O)c1c(C)n([O-])c2cc(C)c(C)cc2[n+]1=O`, the TGI was > 100 µM. For `CCCS(=O)(=O)c1nc(NC2CC2)cc(-c2ccc3c(ccn3C3CC(C)(C)NC(C)(C)C3)c2)n1`, the GI50 was 1.88 µM and the TGI was 3.89 µM. Molecule `N#CC(C#N)=Cc1cccc(Oc2ccccc2)c1` has a TGI of 40.6 µM. For `Cc1ncc([N+](=O)[O-])n1CCNC(=O)CCCCn1ccnc1[N+](=O)[O-]`, the TGI was > 100 µM. Molecule `COc1ccc(/C=C/C(=O)c2sc(-n3nc(-c4ccccc4)cc3-c3ccccc3)nc2C)cc1OC` has a TGI of 84.2 µM. In the case of `COC(=O)c1c(O)ccc2[nH]c(C)c(C#N)c12`, the GI50 is reported as 40 µM and the TGI is reported as > 100 µM. In the case of `NC(CCSCC(F)F)C(=O)O` (stereo not drawn), the TGI is reported as > 100 µM. For `COC(=O)NC/C=C\c1nc(CC/C=C\C(=O)OC2CC3CC(=O)O[C@@H](/C=C/CC(C)C)C[C@@H]4CCC(C)C(C[C@@H](OC)CC(C2)O3)O4)co1` (stereo partly drawn), the GI50 was < 0.01 µM and the TGI was 84 µM. `CC1(C)OC(=O)C=C([O-])O1.CC1(C)OC(=O)C=C([O-])O1.O=c1c(O)c(-c2ccc([O-])cc2[O-])oc2cc(O)cc(O)c12.[Ti+4]` was tested, and the TGI was 95.5 µM.

The molecules below were run on SW-620 colon (assay: inhibition of tumour cell growth, NCI panel, 48 h).
For `CN(C)C(=S)/N=c1\ss/c(=N\S(=O)(=O)c2ccccc2)n1-c1ccccc1`, the TGI was > 100 µM. `N#Cc1c(N)c(C(=O)O)nn(-c2cccc(C(F)(F)F)c2)c1=O` was tested, and the TGI was > 100 µM. With `CCOC(=O)Cc1nc(/C(C#N)=C/c2ccco2)[nH]c(=O)c1C#N` the TGI was > 100 µM. `CC1=Nc2c(ccc3c2C(=O)c2ccccc2C3=O)NC(c2ccncc2)C1` (stereo not drawn) was tested, and the TGI was > 100 µM. With `Cc1ccc(C(=O)CC(Sc2cccc(Cl)c2Cl)c2ccc(Cl)cc2)cc1C` (stereo not drawn) the GI50 was 17.8 µM and the TGI was 36 µM. For `Oc1c(Br)cc(CN(Cc2cc(Br)c(O)c(Br)c2)C2CCCCC2)cc1Br`, the TGI was > 100 µM. For `COc1cc(/C=C\c2ccc(O)cc2)cc(OC)c1OC`, the TGI was > 100 µM. In the case of `C=C(COC(C)=O)CC(/C=C(\C)CCC=C(C)C)OC(C)=O` (stereo not drawn), the TGI is reported as > 100 µM. With `Cc1sc(C)c(-c2ccc(CO)o2)c1-c1ccc(CO)o1` the GI50 was 0.499 µM and the TGI was > 100 µM. `CC1(C)CCc2cc3c(cc2O1)OCCC3=O` was tested, and the TGI was > 100 µM. With `Oc1c2c(c(O)c3ccccc13)=N[C@@H](c1ccccc1)[C@H](c1ccccc1)N=2` the TGI was > 100 µM. `c1cc[c]([Sn]([S]c2cccc3cccnc23)([c]2ccccc2)[c]2ccccc2)cc1` gave a GI50 of 0.0225 µM and a TGI of 0.0918 µM. With `O=C1CCn2c([nH]c3cccc4cccc2c43)=N1` the TGI was > 100 µM. `C=C1CC(COc2cc(Cl)nc(N)n2)C1` gave a GI50 of 45.7 µM. With `Clc1cc(Cl)c2c(Cl)cc(Cl)c3c2c1N=S=N3` the TGI was > 100 µM. `CC(=O)OCCOCBr` was tested, and the TGI was > 100 µM. With `O=C1c2ccccc2-c2c1c1ccccc1c(=O)n2CCNCCCNCCn1c2c(c3ccccc3c1=O)C(=O)c1ccccc1-2` the GI50 was < 0.005 µM and the TGI was 0.58 µM. With `CC(O)CN1C(=O)NC(Cc2ccccc2)C1=O` (stereo not drawn) the TGI was > 100 µM. In the case of `O=C(c1ccccc1)[C@H]1Nc2cnccc2C2c3ccccc3CC21` (stereo partly drawn), the TGI is reported as 47.3 µM. With `Cn1c(N)nc2c(nc(OCc3ccccc3)n2C2OC(CO)C(O)C2O)c1=O` (stereo not drawn) the TGI was > 100 µM. `CN(C)c1nc(-c2cccs2)n2nc(-c3ccc(Cl)cc3)cc2n1` was tested, and the GI50 was > 100 µM and the TGI was > 100 µM. In the case of `COc1ccc(C(=O)C(C(=O)CCC(=O)Nc2cccc(C(F)(F)F)c2)c2ccccc2)cc1` (stereo not drawn), the TGI is reported as > 100 µM. With `NC1=NC(=O)C(CC(=O)Nc2ccc([N+](=O)[O-])cc2[N+](=O)[O-])S1` (stereo not drawn) the TGI was > 100 µM. For `O=C1c2ccccc2-c2cccc3ccc(Cc4ccccc4)c1c23`, the TGI was > 100 µM. In the case of `COC(=O)/C(=N\NC(=S)NN)C(C(=O)C(=O)Nc1ccccc1C(N)=O)c1nc2ccccc2[nH]c1=O` (stereo not drawn), the TGI is reported as > 100 µM. In the case of `CC/C=C\C/C=C\C1CC(=O)NCCCNCCCCN1` (stereo not drawn), the TGI is reported as > 100 µM. Molecule `CC1CCCC(C(=O)/C(=C/c2cccc(Cl)c2)C(=O)C(=O)O)C1` (stereo not drawn) has a TGI of 27.7 µM. For `CC(=O)c1c(C)n([O-])c2cc(C)c(C)cc2[n+]1=O`, the TGI was > 100 µM. Molecule `N#CC(C#N)=Cc1cccc(Oc2ccccc2)c1` has a TGI of 58.7 µM. For `Cc1ncc([N+](=O)[O-])n1CCNC(=O)CCCCn1ccnc1[N+](=O)[O-]`, the TGI was > 100 µM. In the case of `COc1ccc(/C=C/C(=O)c2sc(-n3nc(-c4ccccc4)cc3-c3ccccc3)nc2C)cc1OC`, the TGI is reported as > 100 µM. `COC(=O)c1c(O)ccc2[nH]c(C)c(C#N)c12` was tested, and the GI50 was 45.4 µM and the TGI was > 100 µM. With `NC(CCSCC(F)F)C(=O)O` (stereo not drawn) the TGI was > 100 µM. In the case of `COC(=O)NC/C=C\c1nc(CC/C=C\C(=O)OC2CC3CC(=O)O[C@@H](/C=C/CC(C)C)C[C@@H]4CCC(C)C(C[C@@H](OC)CC(C2)O3)O4)co1` (stereo partly drawn), the GI50 is reported as < 0.01 µM and the TGI is reported as > 100 µM. In the case of `CC1(C)OC(=O)C=C([O-])O1.CC1(C)OC(=O)C=C([O-])O1.O=c1c(O)c(-c2ccc([O-])cc2[O-])oc2cc(O)cc(O)c12.[Ti+4]`, the TGI is reported as > 100 µM.
